PubChem BioAssay (NCI)
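Values below derive from 48-hour exposures of cells grown in 96-well plates, with endpoints linearly interpolated between the two concentrations bracketing the appropriate inhibition level. GI50 is the concentration that inhibits growth by half. TGI: concentration producing complete growth inhibition.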

How the values were obtained:
Experiment in all cases: inhibition of tumour cell growth, NCI panel, 48 h
[1] = test system: SK-MEL-28 melanoma
[2] = test system: SK-OV-3 ovarian
[3] = test system: COLO 205 colon
[4] = test system: CAKI-1 renal
[5] = test system: ACHN renal
[6] = test system: SF-295 CNS
[7] = test system: HT29 colon
[8] = test system: SW-620 colon
[9] = test system: SK-MEL-5 melanoma
[10] = test system: LOX IMVI melanoma

Row | Compound | TGI [1] | TGI [2] | TGI [3] | TGI [4] | TGI [5] | TGI [6] | TGI [7] | TGI [8] | TGI [9] | GI50 [10] | TGI [10] | GI50 [1] | GI50 [2] | GI50 [3] | GI50 [4] | GI50 [5] | GI50 [6] | GI50 [7] | GI50 [8] | GI50 [9]
1 | CSc1s[s+]c(SC)c1[O-] | 34.2 µM | > 100 µM | 68.8 µM | 53.6 µM | > 100 µM | > 100 µM | 74.1 µM | 31.7 µM | > 100 µM |  |  |  |  |  |  |  |  |  |  | 
2 | C=CCSc1n[nH]c(-c2cccs2)n1 | > 100 µM | > 100 µM | > 100 µM | > 100 µM | > 100 µM | > 100 µM | > 100 µM | > 100 µM | > 100 µM | > 100 µM | > 100 µM | > 100 µM | > 100 µM | > 100 µM | > 100 µM | > 100 µM | > 100 µM | > 100 µM | > 100 µM | > 100 µM
3 | O=C=Nc1ccc(Cc2ccc(N=C=O)cc2)cc1 (tested in a mixture with another compound) | > 25 mg/L | > 25 mg/L | > 25 mg/L | > 25 mg/L | > 25 mg/L | > 25 mg/L | > 25 mg/L | > 25 mg/L | > 25 mg/L | > 25 mg/L | > 25 mg/L | > 25 mg/L | > 25 mg/L | > 25 mg/L | > 25 mg/L | > 25 mg/L | > 25 mg/L | > 25 mg/L | > 25 mg/L | > 25 mg/L
4 | COc1ccc(OC)c(CCc2cc(OC)c(OC)cc2C)c1 | > 100 µM | 98.4 µM | > 100 µM | > 100 µM | > 100 µM | 47.2 µM | > 100 µM | > 100 µM | > 100 µM |  |  |  |  |  |  |  |  |  |  | 
5 | COc1ccc(C(=O)C(C(=O)C(=O)Nc2nc3ccc(OC)cc3s2)c2ccc(OC)cc2)cc1 (stereo not drawn) | > 100 µM | > 100 µM | > 100 µM | > 100 µM | > 100 µM | > 100 µM | > 100 µM | > 100 µM | > 100 µM |  | > 100 µM |  |  |  |  |  |  |  |  | 
6 | Cc1ccc(C(=O)/C=C/c2ccccc2Cl)cc1 | 29.2 µM | 99.5 µM | 47.2 µM | 34.6 µM | 29.4 µM | 39.8 µM | 29.7 µM | 27 µM | 38.5 µM |  |  |  |  |  |  |  |  |  |  | 
7 | Oc1cccc(C2SCc3nc4ccccc4n32)c1 (stereo not drawn) | > 100 µM | > 100 µM | > 100 µM | > 100 µM | > 100 µM | > 100 µM | > 100 µM | > 100 µM | 38.2 µM |  |  |  |  |  |  |  |  |  |  | 
8 | O=C(Nc1cc(C(F)(F)F)ccc1Cl)C(=O)C(C(=O)c1ccc2ccccc2c1)C1OC(=O)c2ccccc21 (stereo not drawn) | 13.1 µM | > 100 µM | 37.3 µM | > 52.5 µM | > 86.7 µM | 27.6 µM | 31.7 µM | 37.8 µM | 22.5 µM |  | 25.7 µM |  |  |  |  |  |  |  |  | 
9 | COC1OC(C)C(OC(=O)C(C)(C)C)C(C)(O)C1O (stereo not drawn) | > 100 µM |  | > 100 µM | > 100 µM |  | > 100 µM | > 100 µM | > 100 µM | > 100 µM |  | > 100 µM |  |  |  |  |  |  |  |  | 
10 | C=CC1=C(C)C2=NC1=CC1=NC(=C(CC)/C1=C/O)C=C1C=C3C(=O)C(C(=O)OC)C(=C4NC(=C2)C(C)C4CCC(=O)OC/C=C(\C)CCCC(C)CCCC(C)CCCC(C)C)C3=N1 (stereo not drawn) (tested in a mixture with another compound) | > 100 µM | > 100 µM | > 100 µM | > 100 µM | > 100 µM | > 100 µM | > 100 µM | > 100 µM | > 100 µM |  | > 100 µM |  |  |  |  |  |  |  |  | 
11 | c1ccc(-c2cc(-c3cc(-c4ccccn4)[nH]n3)n[nH]2)nc1 | > 100 µM | > 100 µM | > 100 µM | > 100 µM | > 100 µM | > 100 µM | > 100 µM | > 100 µM | > 100 µM |  | > 100 µM |  |  |  |  |  |  |  |  | 
12 | Fc1cccc(F)c1C1SCc2nc3ccccc3n21 (stereo not drawn) |  | > 100 µM | > 100 µM | > 100 µM | > 100 µM | > 100 µM | > 100 µM | > 100 µM | 75.4 µM |  | > 100 µM |  |  |  |  |  |  |  |  | 
13 | CN/N=C(\C)CC(=O)Nc1cccc(Cl)c1C | > 100 µM | > 100 µM | > 100 µM | > 100 µM | > 100 µM | > 100 µM | > 100 µM |  | > 100 µM |  | > 100 µM |  |  |  |  |  |  |  |  | 
14 | Cc1ccc(NC(=O)SCCC(=O)O)cc1NC(=O)SCCC(=O)O | > 100 µM |  | > 10 µM | > 100 µM | > 100 µM | > 100 µM | > 100 µM | > 100 µM |  |  | > 100 µM |  |  |  |  |  |  |  |  | 
15 | CC1CC(=O)C(C(O)CC2CC(=O)N(c3ccccc3)C(=O)C2)C(C)C1 (stereo not drawn) | > 100 µM | > 100 µM | > 100 µM | > 100 µM | > 100 µM | > 100 µM | > 100 µM | > 100 µM |  |  | > 100 µM |  |  |  |  |  |  |  |  | 
16 | O=C(O)/C(O)=C1/C=C(c2ccccc2)c2ccccc21 |  | > 100 µM | 31.9 µM | 63.6 µM | 94.5 µM | 32.9 µM | 86.8 µM | 37.7 µM | 34 µM |  | 36.1 µM |  |  |  |  |  |  |  |  | 
17 | Cc1cc(N2CCN(C)CC2)nc(NC2CCCC(Nc3ccnc4cc(Cl)ccc34)C2)n1 (stereo not drawn) | 3.7 µM | 11.5 µM | 3.45 µM |  | 3.51 µM | 3.25 µM | 6.16 µM | 10.8 µM | 3.17 µM | 1.77 µM | 3.53 µM | 1.8 µM | 3.35 µM | 1.68 µM |  | 1.86 µM | 1.68 µM | 2.14 µM | 2.48 µM | 1.76 µM
18 | C=C(CO)CC(O)c1ccccc1 (stereo not drawn) | > 100 µM | > 100 µM | > 100 µM |  | > 100 µM | > 100 µM | > 100 µM | > 100 µM | > 100 µM |  | > 100 µM |  |  |  |  |  |  |  |  | 
19 | Cc1ccnc2c1NC(=O)c1cccnc1N2C1CC1 | > 100 µM | > 100 µM | > 100 µM | > 100 µM | > 100 µM |  | > 100 µM | > 100 µM | > 100 µM | > 100 µM | > 100 µM | > 100 µM | > 100 µM | > 100 µM | > 100 µM | > 100 µM |  | > 100 µM | > 100 µM | > 100 µM
